Laboratory results published in patent US6992079B2, “Substituted 11-phenyl-dibenzazepine compounds useful for the treatment or prevention of diseases characterized by abnormal cell proliferation” (President Fellows of Harvard College, priority 1997, dated 2006).
Like-named read-outs stand apart in the source and are kept apart here.

What was measured:
OVCAR-4 = test: In-Vitro Testing SRB panel: Ovarian Cancer; type: cell-based; conditions: OVCAR-4
OVCAR-8 = test: In-Vitro Testing SRB panel: Ovarian Cancer; type: cell-based; conditions: OVCAR-8
IGROV1 = test: In-Vitro Testing SRB panel: Ovarian Cancer; type: cell-based
MMRU = test: SRB antiproliferative assay; type: cell-based; conditions: Homo sapiens, MMRU (Melanoma), 5% FCS/5 day incubation
Description: (§1) The cells were passaged using Trypsin (Gibco).

MDA-MB-23 = test: SRB antiproliferative assay; type: cell-based; conditions: Homo sapiens; MDA-MB-23 (Breast); SRB; 5% FCS/5 day incubation; read-out: IC50
Description: as §1

SW-620 = test: In-Vitro Testing SRB panel: Colon Cancer; type: cell-based; conditions: SW-620
MDA-MB-231/ATCC = test: In-Vitro Testing SRB panel: Breast Cancer; type: cell-based; conditions: MDA-MB-231/ATCC
OVCAR-5 = test: In-Vitro Testing SRB panel: Ovarian Cancer; type: cell-based; conditions: OVCAR-5
MOLT-4 = test: In-Vitro Testing SRB panel: Leukemia; type: cell-based; conditions: MOLT-4
MC-F7 = test: In-Vitro Testing SRB panel: Breast Cancer; type: cell-based
[1] = test system: H209 small lung cell carcinoma; test: Mouse xenograft tumor growth; type: in vivo, SCID mice
A549/ATCC = type: cell-based
BT-549 = test: In-Vitro Testing SRB panel: Breast Cancer; type: cell-based; conditions: BT-549
MALM-3M = test: In-Vitro Testing SRB panel: Melanoma; type: cell-based; conditions: MALM-3M
CCRF-CEM = test: In-Vitro Testing SRB panel: Leukemia; type: cell-based
ROP-92 = type: cell-based
SK-OV-3 = test: In-Vitro Testing SRB panel: Ovarian Cancer; type: cell-based; conditions: SK-OV-3
786-0 = test: In-Vitro Testing SRB panel: Renal Cancer; type: cell-based; conditions: 786-0
[2] = Homo sapiens, read-out: LC50 (the source's name)

SMILES: COc1cccc2c1C(c1ccccc1Cl)c1cc(Cl)ccc1N(C(=O)c1ccc([N+](=O)[O-])cc1)C2 (stereo not drawn) [Compound 31]
- GI50 (OVCAR-4; Homo sapiens): 1.83 µM
- CC50 (OVCAR-4; [2]): > 100 µM
- TGI (OVCAR-4): 8.34E−05 Molar
- Percent Growth (OVCAR-4; log10 conc -4 Molar): −1%
- Percent Growth (OVCAR-4; log10 conc -5 Molar): 16%
- Percent Growth (OVCAR-4; log10 conc -6 Molar): 62%
- Percent Growth (OVCAR-4; log10 conc -7 Molar): 83%
- Percent Growth (OVCAR-4; log10 conc -8 Molar): 91%
- GI50 (OVCAR-8; Homo sapiens): 5.3 µM
- CC50 (OVCAR-8; [2]): > 100 µM
- TGI (OVCAR-8): >1.00E−04 Molar
- Percent Growth (OVCAR-8; log10 conc -4 Molar): 29%
- Percent Growth (OVCAR-8; log10 conc -5 Molar): 38%
- Percent Growth (OVCAR-8; log10 conc -6 Molar): 82%
- Percent Growth (OVCAR-8; log10 conc -7 Molar): 94%
- Percent Growth (OVCAR-8; log10 conc -8 Molar): 99%
- GI50 (IGROV1; Homo sapiens, IGROV-1): 2.13 µM
- CC50 (IGROV1; Homo sapiens, IGROV-1, IGROV1, read-out: LC50 (the source's name)): > 100 µM
- TGI (IGROV1; IGROV1): >1.00E−04 Molar
- Percent Growth (IGROV1; IGROV1, log10 conc -4 Molar): 29%
- Percent Growth (IGROV1; IGROV1, log10 conc -5 Molar): 35%
- Percent Growth (IGROV1; IGROV1, log10 conc -6 Molar): 57%
- Percent Growth (IGROV1; IGROV1, log10 conc -7 Molar): 80%
- Percent Growth (IGROV1; IGROV1, log10 conc -8 Molar): 94%
- IC50 (MMRU): 0.2 µM
- IC50 (MDA-MB-23): 0.4 µM
- GI50 (SW-620; Homo sapiens): 2 µM
- CC50 (SW-620; [2]): > 100 µM
- TGI (SW-620): >1.00E−04 Molar
- Percent Growth (SW-620; log10 conc -4 Molar): 27%
- Percent Growth (SW-620; log10 conc -5 Molar): 34%
- Percent Growth (SW-620; log10 conc -6 Molar): 57%
- Percent Growth (SW-620; log10 conc -7 Molar): 94%
- Percent Growth (SW-620; log10 conc -8 Molar): 105%
- CC50 (MDA-MB-231/ATCC; [2]): > 100 µM
- TGI (MDA-MB-231/ATCC): >1.00E−04 Molar
- Percent Growth (MDA-MB-231/ATCC; log10 conc -4 Molar): 56%
- Percent Growth (MDA-MB-231/ATCC; log10 conc -5 Molar): 49%
- Percent Growth (MDA-MB-231/ATCC; log10 conc -6 Molar): 38%
- Percent Growth (MDA-MB-231/ATCC; log10 conc -7 Molar): 50%
- Percent Growth (MDA-MB-231/ATCC; log10 conc -8 Molar): 90%
- GI50 (OVCAR-5; Homo sapiens): 91.7 µM
- CC50 (OVCAR-5; [2]): > 100 µM
- TGI (OVCAR-5): >1.00E−04 Molar
- Percent Growth (OVCAR-5; log10 conc -4 Molar): 49%
- Percent Growth (OVCAR-5; log10 conc -5 Molar): 70%
- Percent Growth (OVCAR-5; log10 conc -6 Molar): 82%
- Percent Growth (OVCAR-5; log10 conc -7 Molar): 102%
- Percent Growth (OVCAR-5; log10 conc -8 Molar): 101%
- GI50 (MOLT-4; Homo sapiens): 0.336 µM
- CC50 (MOLT-4; [2]): > 100 µM
- TGI (MOLT-4): >1.00E−04 Molar
- Percent Growth (MOLT-4; log10 conc -4 Molar): 6%
- Percent Growth (MOLT-4; log10 conc -5 Molar): 14%
- Percent Growth (MOLT-4; log10 conc -6 Molar): 24%
- Percent Growth (MOLT-4; log10 conc -7 Molar): 79%
- Percent Growth (MOLT-4; log10 conc -8 Molar): 95%
- GI50 (MC-F7; Homo sapiens, MCF7): 0.821 µM
- CC50 (MC-F7; Homo sapiens, MCF7, MC-F7, read-out: LC50 (the source's name)): > 100 µM
- TGI (MC-F7; MC-F7): >1.00E−04 Molar
- Percent Growth (MC-F7; MC-F7, log10 conc -4 Molar): 5%
- Percent Growth (MC-F7; MC-F7, log10 conc -5 Molar): 19%
- Percent Growth (MC-F7; MC-F7, log10 conc -6 Molar): 46%
- Percent Growth (MC-F7; MC-F7, log10 conc -7 Molar): 93%
- Percent Growth (MC-F7; MC-F7, log10 conc -8 Molar): 97%
- tumor growth [1]: showed inhibition of tumor growth
- TGI (ERVX; ERVX): >1.00E−04 Molar
- Percent Growth (ERVX; ERVX, log10 conc -4 Molar): 7%
- Percent Growth (ERVX; ERVX, log10 conc -5 Molar): 27%
- Percent Growth (ERVX; ERVX, log10 conc -6 Molar): 80%
- Percent Growth (ERVX; ERVX, log10 conc -7 Molar): 103%
- Percent Growth (ERVX; ERVX, log10 conc -8 Molar): 100%
- GI50 (ERVX; Homo sapiens): 3.65 µM
- CC50 (ERVX; Homo sapiens, read-out: LC50): > 100 µM
- TGI (A549/ATCC; A549/ATCC): >1.00E−04 Molar
- Percent Growth (A549/ATCC; A549/ATCC, log10 conc -4 Molar): 3%
- Percent Growth (A549/ATCC; A549/ATCC, log10 conc -5 Molar): 11%
- Percent Growth (A549/ATCC; A549/ATCC, log10 conc -6 Molar): 61%
- Percent Growth (A549/ATCC; A549/ATCC, log10 conc -7 Molar): 98%
- Percent Growth (A549/ATCC; A549/ATCC, log10 conc -8 Molar): 94%
- GI50 (A549/ATCC; Homo sapiens, A549): 1.67 µM
- CC50 (A549/ATCC; Homo sapiens, A549/ATCC, read-out: LC50 (the source's name)): > 100 µM
- TGI (BT-549): >1.00E−04 Molar
- Percent Growth (BT-549; log10 conc -4 Molar): 11%
- Percent Growth (BT-549; log10 conc -5 Molar): 43%
- Percent Growth (BT-549; log10 conc -6 Molar): 59%
- Percent Growth (BT-549; log10 conc -7 Molar): 94%
- Percent Growth (BT-549; log10 conc -8 Molar): 92%
- GI50 (BT-549; Homo sapiens): 3.83 µM
- CC50 (BT-549; [2]): > 100 µM
- CC50 (MALM-3M; [2]): > 100 µM
- TGI (MALM-3M): >1.00E−04 Molar
- Percent Growth (MALM-3M; log10 conc -4 Molar): 97%
- Percent Growth (MALM-3M; log10 conc -5 Molar): 96%
- Percent Growth (MALM-3M; log10 conc -6 Molar): 42%
- Percent Growth (MALM-3M; log10 conc -7 Molar): 123%
- Percent Growth (MALM-3M; log10 conc -8 Molar): 117%
- TGI (CCRF-CEM): >1.00E−04 Molar
- GI50 (CCRF-CEM; Homo sapiens): 1.53 µM
- CC50 (CCRF-CEM; [2]): > 100 µM
- Percent Growth (CCRF-CEM; log10 conc -4 Molar): 2%
- Percent Growth (CCRF-CEM; log10 conc -5 Molar): 21%
- Percent Growth (CCRF-CEM; log10 conc -6 Molar): 56%
- Percent Growth (CCRF-CEM; log10 conc -7 Molar): 94%
- Percent Growth (CCRF-CEM; log10 conc -8 Molar): 111%
- GI50 (ROP-92; Homo sapiens): 5.53 µM
- CC50 (ROP-92; Homo sapiens, ROP-92, read-out: LC50 (the source's name)): > 100 µM
- TGI (ROP-92; ROP-92): >1.00E−04 Molar
- Percent Growth (ROP-92; ROP-92, log10 conc -4 Molar): 27%
- Percent Growth (ROP-92; ROP-92, log10 conc -5 Molar): 42%
- Percent Growth (ROP-92; ROP-92, log10 conc -6 Molar): 74%
- Percent Growth (ROP-92; ROP-92, log10 conc -7 Molar): 88%
- Percent Growth (ROP-92; ROP-92, log10 conc -8 Molar): 89%
- GI50 (SK-OV-3; Homo sapiens): > 100 µM
- CC50 (SK-OV-3; [2]): > 100 µM
- TGI (SK-OV-3): >1.00E−04 Molar
- Percent Growth (SK-OV-3; log10 conc -4 Molar): 63%
- Percent Growth (SK-OV-3; log10 conc -5 Molar): 85%
- Percent Growth (SK-OV-3; log10 conc -6 Molar): 88%
- Percent Growth (SK-OV-3; log10 conc -7 Molar): 102%
- Percent Growth (SK-OV-3; log10 conc -8 Molar): 97%
- TGI (786-0): >1.00E−04 Molar
- Percent Growth (786-0; log10 conc -4 Molar): 14%
- Percent Growth (786-0; log10 conc -5 Molar): 26%
- Percent Growth (786-0; log10 conc -6 Molar): 54%
- Percent Growth (786-0; log10 conc -7 Molar): 91%
- Percent Growth (786-0; log10 conc -8 Molar): 95%
- GI50 (786-0; Homo sapiens): 1.35 µM
- CC50 (786-0; [2]): > 100 µM
